Reference: PubChem BioAssay AID248 (DTP/NCI, 2004)
Where “and” joins values, the source holds several entries; their conditions need not be identical. Equal values may be shown once. Toxic doses and inconclusive results are not listed. Cut-off read from the data, not from the text of the source: active = T/C of 150% or more; inactive = T/C below 125%.

System: L1210 leukemia ip in BDF1 mice, survival T/C
Assay: NCI In Vivo Anticancer Drug Screen. Data for tumor model L1210 Leukemia (intraperitoneal) in B6D2F1 (BDF1) mice
Settings: endpoint: mean survival time, higher = longer survival
How it was run: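 Read-out is survival time, reported as the treated-group measurement over the vehicle-control measurement.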

[1] = dose: 400.0 mg/kg/injection, schedule: Q04DX002 (ip), vehicle: saline with Tween-80
[2] = dose: 100.0 mg/kg/injection, schedule: Q01DX001 (ip), vehicle: saline with Tween-80
[3] = dose: 200.0 mg/kg/injection, schedule: Q01DX001 (ip), vehicle: saline with Tween-80
[4] = dose: 400.0 mg/kg/injection, schedule: Q01DX001 (ip), vehicle: saline with Tween-80
[5] = dose: 50.0 mg/kg/injection, schedule: Q01DX009 (ip), vehicle: saline
[6] = dose: 50.0 mg/kg/injection, schedule: Q04DX003 (ip), vehicle: saline
[7] = dose: 75.0 mg/kg/injection, schedule: Q01DX001 (ip), vehicle: saline
[8] = dose: 100.0 mg/kg/injection, schedule: Q01DX009 (ip), vehicle: saline
[9] = dose: 100.0 mg/kg/injection, schedule: Q04DX003 (ip), vehicle: saline
[10] = dose: 150.0 mg/kg/injection, schedule: Q01DX001 (ip), vehicle: saline
[11] = dose: 200.0 mg/kg/injection, schedule: Q01DX009 (ip), vehicle: saline
[12] = dose: 200.0 mg/kg/injection, schedule: Q04DX003 (ip), vehicle: saline
[13] = dose: 300.0 mg/kg/injection, schedule: Q01DX001 (ip), vehicle: saline
[14] = dose: 100.0 mg/kg/injection, schedule: Q01DX001 (ip), vehicle: carboxymethylcellulose (CMC)
[15] = dose: 200.0 mg/kg/injection, schedule: Q01DX001 (ip), vehicle: carboxymethylcellulose (CMC)
[16] = dose: 400.0 mg/kg/injection, schedule: Q01DX001 (ip), vehicle: carboxymethylcellulose (CMC)
[17] = dose: 100.0 mg/kg/injection, schedule: Q01DX009 (ip), vehicle: saline with Tween-80
[18] = dose: 200.0 mg/kg/injection, schedule: Q01DX009 (ip), vehicle: saline with Tween-80
[19] = dose: 100.0 mg/kg/injection, schedule: Q04DX003 (ip), vehicle: saline with Tween-80
[20] = dose: 200.0 mg/kg/injection, schedule: Q04DX003 (ip), vehicle: saline with Tween-80
[21] = dose: 400.0 mg/kg/injection, schedule: Q04DX003 (ip), vehicle: saline with Tween-80

Measured: T/C

O=C(O)CC1CC2CCC1C2 (stereo unspecified)
inactive: dose: 100.0 mg/kg/injection, schedule: Q04DX002 (ip), vehicle: saline with Tween-80 87 % of control | dose: 200.0 mg/kg/injection, schedule: Q04DX002 (ip), vehicle: saline with Tween-80 97 % of control | [1] 87 % of control

CCOC(=O)C1C(=O)C=C(C)C(C(=O)OCC)C1c1ccc(N(C)C)cc1 (stereo unspecified)
inactive: dose: 25.6 mg/kg/injection, schedule: Q04DX002 (ip), vehicle: saline with Tween-80 92 % of control | dose: 64.0 mg/kg/injection, schedule: Q04DX002 (ip), vehicle: saline with Tween-80 96 % of control | dose: 160.0 mg/kg/injection, schedule: Q04DX002 (ip), vehicle: saline with Tween-80 92 % of control | [1] 103 % of control

CC(=O)Oc1ccc2ccccc2c1CN(Cc1c(OC(C)=O)ccc2ccccc12)C(C)=O
inactive: dose: 100.0 mg/kg/injection, schedule: Q01DX001 (ip), vehicle: other 96 % of control | dose: 400.0 mg/kg/injection, schedule: Q01DX001 (ip), vehicle: other 93 % of control

CCOC(=O)C(C)(C)Oc1ccc(O)cc1
inactive: [2] 105 % of control | [3] 105 % of control | [4] 97 % of control

CC(C)=NOC(C)C(=O)O (stereo unspecified)
inactive: [5] 94 % of control and 101 % of control | [6] 95 % of control | [7] 101 % of control and 98 % of control | [8] 91 % of control and 97 % of control | [9] 100 % of control and 98 % of control | [10] 103 % of control and 106 % of control | [11] 92 % of control and 103 % of control | [12] 97 % of control and 95 % of control | [13] 114 % of control

Cc1coc2ccccc2c1=O
inactive: dose: 50.0 mg/kg/injection, schedule: Q04DX002 (ip), vehicle: gum acacia 114 % of control | dose: 100.0 mg/kg/injection, schedule: Q04DX002 (ip), vehicle: gum acacia 117 % of control | dose: 200.0 mg/kg/injection, schedule: Q04DX002 (ip), vehicle: gum acacia 107 % of control

C=CCSCn1ncc2ccc([N+](=O)[O-])cc21
inactive: dose: 100.0 mg/kg/injection, schedule: Q01DX001 (ip), vehicle: saline 94 % of control | dose: 200.0 mg/kg/injection, schedule: Q01DX001 (ip), vehicle: saline 92 % of control | dose: 400.0 mg/kg/injection, schedule: Q01DX001 (ip), vehicle: saline 96 % of control

CCCCCCCCCCCCCCCCCCNC(=O)NCCN(C)c1ccccc1
inactive: dose: 100.0 mg/kg/injection, schedule: Q01DX009 (ip), vehicle: carboxymethylcellulose (CMC) 87 % of control and 91 % of control | dose: 100.0 mg/kg/injection, schedule: Q04DX002 (ip), vehicle: Klucel (hydroxypropylcellulose) (HPC) 108 % of control | dose: 100.0 mg/kg/injection, schedule: Q04DX002 (ip), vehicle: carboxymethylcellulose (CMC) 95 % of control and 97 % of control | dose: 100.0 mg/kg/injection, schedule: Q04DX003 (ip), vehicle: carboxymethylcellulose (CMC) 95 % of control | dose: 200.0 mg/kg/injection, schedule: Q01DX009 (ip), vehicle: carboxymethylcellulose (CMC) 90 % of control | dose: 200.0 mg/kg/injection, schedule: Q04DX002 (ip), vehicle: Klucel (hydroxypropylcellulose) (HPC) 112 % of control | dose: 200.0 mg/kg/injection, schedule: Q04DX002 (ip), vehicle: carboxymethylcellulose (CMC) 93 % of control and 95 % of control | dose: 200.0 mg/kg/injection, schedule: Q04DX003 (ip), vehicle: carboxymethylcellulose (CMC) 104 % of control | dose: 400.0 mg/kg/injection, schedule: Q04DX002 (ip), vehicle: Klucel (hydroxypropylcellulose) (HPC) 102 % of control | dose: 400.0 mg/kg/injection, schedule: Q04DX002 (ip), vehicle: carboxymethylcellulose (CMC) 95 % of control and 90 % of control | dose: 400.0 mg/kg/injection, schedule: Q04DX003 (ip), vehicle: carboxymethylcellulose (CMC) 86 % of control

CCOC(=O)NC(NC(=O)OCC)c1ccc(Cl)c(Cl)c1
inactive: [14] 98 % of control | [15] 98 % of control | [16] 93 % of control

COc1cc(N[Si](C)(C)C)nc(OC)n1
inactive: [5] 100 % of control | [8] 96 % of control | [11] 92 % of control

CC(=O)Nc1ccc(Br)c(NC(C)=O)n1
inactive: [17] 109 % of control | [18] 101 % of control | dose: 400.0 mg/kg/injection, schedule: Q01DX009 (ip), vehicle: saline with Tween-80 112 % of control

CC(C)c1cc(C(C)C)c(C(=O)Oc2c(Br)cc(Br)cc2Br)c(C(C)C)c1
inactive: [17] 95 % of control | [19] 98 % of control | [18] 92 % of control | [20] 93 % of control | [21] 90 % of control

C[N+](C)(C)CCC1CCCCC1
inactive: [7] 102 % of control

COc1ccc(C(=O)CCS/C(CCO)=C(\C)N(C=O)Cc2cnc(C)nc2N)cc1
inactive: [9] 101 % of control | [12] 101 % of control | dose: 400.0 mg/kg/injection, schedule: Q04DX003 (ip), vehicle: saline 101 % of control

O=C(CCl)OCC1CC2C=CC1C2 (stereo unspecified)
inactive: dose: 222.0 mg/kg/injection, schedule: Q01DX Z (ip), vehicle: saline 98 % of control | dose: 333.0 mg/kg/injection, schedule: Q01DX Z (ip), vehicle: saline 100 % of control | dose: 500.0 mg/kg/injection, schedule: Q01DX Z (ip), vehicle: saline 96 % of control

c1ccc(NCc2csc3ccccc23)cc1
inactive: [14] 98 % of control | [15] 88 % of control | [16] 98 % of control

Cc1[nH]nc(-c2cccnc2)c1N=NN(C)C
inactive: [7] 110 % of control | [10] 106 % of control | [13] 111 % of control

O=C1Nc2ccccc2Cc2ccccc21
inactive: [17] 93 % of control | [19] 102 % of control | [18] 92 % of control | [20] 102 % of control | [21] 107 % of control

CC(C)C[As](=O)(O)CC(C)C
inactive: dose: 25.0 mg/kg/injection, schedule: Q04DX003 (ip), vehicle: saline 104 % of control | [6] 109 % of control

CCOC(=O)/C(C)=N\Nc1ccc(Cl)cc1
inactive: dose: 100.0 mg/kg/injection, schedule: Q01DX009 (ip), vehicle: Klucel (hydroxypropylcellulose) (HPC) 106 % of control | dose: 100.0 mg/kg/injection, schedule: Q04DX003 (ip), vehicle: Klucel (hydroxypropylcellulose) (HPC) 102 % of control | dose: 200.0 mg/kg/injection, schedule: Q01DX009 (ip), vehicle: Klucel (hydroxypropylcellulose) (HPC) 98 % of control | dose: 200.0 mg/kg/injection, schedule: Q04DX003 (ip), vehicle: Klucel (hydroxypropylcellulose) (HPC) 98 % of control | dose: 400.0 mg/kg/injection, schedule: Q01DX009 (ip), vehicle: Klucel (hydroxypropylcellulose) (HPC) 98 % of control | dose: 400.0 mg/kg/injection, schedule: Q04DX003 (ip), vehicle: Klucel (hydroxypropylcellulose) (HPC) 99 % of control

CCCCC(CC1CCCCC1)C(=O)O (stereo unspecified)
inactive: [2] 91 % of control | [3] 95 % of control | [4] 88 % of control
